In PMC9315260, “Diarylamine-Guided Carboxamide Derivatives: Synthesis, Biological Evaluation, and Potential Mechanism of Action” (Frontiers in Chemistry, 2022):
One block for each compound: values may come before it.

Columns and labels:
[1] = system: SGC-7901 (human gastric cancer cell line); assay: MTT in vitro cytotoxicity assay, SGC-7901; format: cell-based; details: SGC-7901, Table 1, MTT, mean ± S.D.
Description: (§1) The lead molecules A2 and all newly prepared diarylamine derivatives B1-13 and C1-11 were evaluated for their in vitro cytotoxic effects against SGC-7901, A875, HepG2 and MARC145 cell lines by the classical MTT [3-(4,5-dimethylthiazol-2-yl)-2,5-diphenyl tetrazolium bromide] assay ([Alley et al., 1988]; [Ke et al., 2012]; [Shi et al., 2012]; [Yu et al., 2015]; [Ke et al., 2019]; [Xu et al., 2019]; [Huang et al., 2021]) using 5-FU (5-Fluorouracil) as a control.
(§2) The cytotoxicity of target compounds was determined with MTT assay ([Alley et al., 1988]; [Ke et al., 2012]; [Shi et al., 2012]; [Yu et al., 2015]; [Ke et al., 2019]; [Xu et al., 2019]; [Huang et al., 2021]). SGC-7901, A875, HepG2 and MARC145 cell lines were obtained from Hubei Biopesticide Engineering Research Centre. All data of the experiment were analyzed with SPSS software, and all assay were performed in triplicate on three independent experiments, and measurement data were expressed as the mean ± S.D.
(§3) The in vitro cytotoxicity of the synthesized compounds against different cell lines (SGC-7901, A875, HepG2 and MARC145) was measured with MTT assay. All the data of the experiment were analyzed with SPSS software, and the 50% inhibitory concentrations (IC50) of each compound for the different cell lines were determined. A control was run for each test, and all assays were performed in triplicate on three independent experiments, and measurement data were expressed as the mean ± S.D.

[2] = system: A875 (human melanoma cell line); assay: MTT in vitro cytotoxicity assay, A875; format: cell-based; details: A875, Table 1, MTT, mean ± S.D.
Description: as §1, §2, §3

[3] = system: HepG2 (human hepatocellular liver carcinoma cell line); assay: MTT in vitro cytotoxicity assay, HepG2; format: cell-based; details: HepG2, Table 1, MTT, mean ± S.D.
Description: as §1, §2, §3

[4] = MTT in vitro cytotoxicity assay, MARC145; format: cell-based, African green monkey; details: African green monkey, MARC145 cells (kidney cell line, subclone of MA-104), Table 1; MTT; mean ± S.D.
Description: as §1, §2, §3

SMILES: NC(=O)c1ccccc1NC(=O)c1ccccc1Nc1cccc(C(F)(F)F)c1 [B1, N-(2-Carbamoylphenyl)-2-((3-(trifluoromethyl)phenyl)amino)benzamide]
IC50 [1]: > 100 µM
IC50 [2]: > 100 µM
IC50 [3]: > 100 µM
IC50 [4]: > 100 µM
melting point: 136 to 137 °C

SMILES: CNC(=O)c1ccccc1NC(=O)c1ccccc1Nc1cccc(C(F)(F)F)c1 [B2, N-Methyl-2-(2-((3-(trifluoromethyl)phenyl)amino)benzamido)benzamide]
IC50 [1]: > 96 µM
IC50 [2]: > 96 µM
IC50 [3]: > 96 µM
IC50 [4]: > 96 µM

SMILES: NC(=O)c1cc(F)cc(Br)c1NC(=O)c1ccccc1Nc1cccc(C(F)(F)F)c1 [B3, 3-Bromo-5-fluoro-2-(2-((3-(trifluoromethyl)phenyl)amino)benzamido)benzamide]
IC50 [1]: 22.5 ± 4.04 µM
IC50 [2]: > 80 µM
IC50 [3]: > 80 µM
IC50 [4]: 38 ± 0.81 µM
melting point: 198 to 199 °C

SMILES: CNC(=O)c1cc(F)cc(Br)c1NC(=O)c1ccccc1Nc1cccc(C(F)(F)F)c1 [B4, 3-Bromo-5-fluoro-N-methyl-2-(2-((3-(trifluoromethyl)phenyl)amino)benzamido)benzamide]
IC50 [1]: > 78 µM
IC50 [2]: > 78 µM
IC50 [3]: > 78 µM
IC50 [4]: > 78 µM
melting point: 189 to 190 °C

SMILES: Cc1cccc(C(N)=O)c1NC(=O)c1ccccc1Nc1cccc(C(F)(F)F)c1 [B5, N-(2-Carbamoyl-6-methylphenyl)-2-((3-(trifluoromethyl)phenyl)amino)benzamide]
IC50 [1]: > 97 µM
IC50 [2]: > 97 µM
IC50 [3]: > 97 µM
IC50 [4]: > 97 µM

SMILES: CNC(=O)c1cccc(C)c1NC(=O)c1ccccc1Nc1cccc(C(F)(F)F)c1 [B6, N,3-Dimethyl-2-(2-((3-(trifluoromethyl)phenyl)amino)benzamido)benzamide]
IC50 [1]: > 94 µM
IC50 [2]: > 94 µM
IC50 [3]: > 94 µM
IC50 [4]: > 94 µM

SMILES: NC(=O)c1cc(Cl)ccc1NC(=O)c1ccccc1Nc1cccc(C(F)(F)F)c1 [B9, N-(2-Carbamoyl-4-chlorophenyl) -2-((3-(trifluoromethyl)phenyl)amino)benzamide]
IC50 [1]: > 92 µM
IC50 [2]: > 92 µM
IC50 [3]: > 92 µM
IC50 [4]: > 92 µM

The next lines start with results.

melting point: 176 to 177 °C
SMILES: NC(=O)c1ccc(Cl)cc1NC(=O)c1ccccc1Nc1cccc(C(F)(F)F)c1 [B7, N-(2-Carbamoyl-5-chlorophenyl)-2-((3-(trifluoromethyl)phenyl)amino)benzamide]
IC50 [1]: > 92 µM
IC50 [2]: > 92 µM
IC50 [3]: > 92 µM
IC50 [4]: > 92 µM

melting point: 152 to 153 °C
SMILES: CNC(=O)c1ccc(Cl)cc1NC(=O)c1ccccc1Nc1cccc(C(F)(F)F)c1 [B8, 4-Chloro-N-methyl-2-(2-((3-(trifluoromethyl)phenyl)amino)benzamido)benzamide]
IC50 [1]: > 89 µM
IC50 [2]: > 89 µM
IC50 [3]: > 89 µM
IC50 [4]: > 89 µM

melting point: 190 to 191 °C
SMILES: CNC(=O)c1cc(Cl)ccc1NC(=O)c1ccccc1Nc1cccc(C(F)(F)F)c1 [B10, 5-Chloro-N-methyl-2-(2-((3-(trifluoromethyl)phenyl)amino)benzamido)benzamide]
IC50 [1]: 39.4 ± 8.96 µM
IC50 [2]: > 89 µM
IC50 [3]: 49.9 ± 9.26 µM
IC50 [4]: 38 ± 9.84 µM
